{"source": "patent US20190008797A1", "about": "“ESTROGEN RECEPTOR ALPHA COLIGANDS, AND METHODS OF USE THEREOF” (priority 2016, published 2019)", "key": {"ERα": {"biological_target": "ERα (Homo sapiens, UniProt P03372)", "sequence (P03372 whole entry)": "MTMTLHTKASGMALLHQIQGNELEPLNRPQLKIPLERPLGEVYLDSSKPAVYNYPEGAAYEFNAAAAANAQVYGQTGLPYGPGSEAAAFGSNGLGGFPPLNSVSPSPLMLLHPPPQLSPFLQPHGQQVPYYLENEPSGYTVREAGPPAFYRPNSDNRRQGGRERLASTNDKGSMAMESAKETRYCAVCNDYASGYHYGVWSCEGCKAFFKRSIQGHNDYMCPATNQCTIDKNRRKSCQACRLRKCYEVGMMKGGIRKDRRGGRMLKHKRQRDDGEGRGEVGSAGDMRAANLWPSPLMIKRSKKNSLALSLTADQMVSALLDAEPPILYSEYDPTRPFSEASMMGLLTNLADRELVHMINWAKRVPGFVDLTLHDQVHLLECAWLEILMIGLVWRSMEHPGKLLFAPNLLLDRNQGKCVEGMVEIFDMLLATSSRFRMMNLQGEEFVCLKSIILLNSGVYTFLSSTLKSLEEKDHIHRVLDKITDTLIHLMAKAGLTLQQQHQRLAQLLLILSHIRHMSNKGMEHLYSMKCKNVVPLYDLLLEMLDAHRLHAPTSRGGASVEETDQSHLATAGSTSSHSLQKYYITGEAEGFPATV", "experiment": "ChIP of ERα recruitment in MCF-7 cells", "assay_type": "cell-based", "design": "expressed in transfected cells", "settings": "5 μM + 10 nM E2, 1 hour"}, "c-MYC": {"tested_on": "c-MYC", "experiment": "c-MYC mRNA (real-time PCR) and protein (Western blot) in MCF-7 cells", "settings": "greater than tamoxifen"}, "hPR-B": {"biological_target": "T1, hPR-B (Homo sapiens, UniProt P06401)", "T1 construct": "expressed in transfected cells; host or cells: U2OS", "T1 sequence (P06401 1-933)": "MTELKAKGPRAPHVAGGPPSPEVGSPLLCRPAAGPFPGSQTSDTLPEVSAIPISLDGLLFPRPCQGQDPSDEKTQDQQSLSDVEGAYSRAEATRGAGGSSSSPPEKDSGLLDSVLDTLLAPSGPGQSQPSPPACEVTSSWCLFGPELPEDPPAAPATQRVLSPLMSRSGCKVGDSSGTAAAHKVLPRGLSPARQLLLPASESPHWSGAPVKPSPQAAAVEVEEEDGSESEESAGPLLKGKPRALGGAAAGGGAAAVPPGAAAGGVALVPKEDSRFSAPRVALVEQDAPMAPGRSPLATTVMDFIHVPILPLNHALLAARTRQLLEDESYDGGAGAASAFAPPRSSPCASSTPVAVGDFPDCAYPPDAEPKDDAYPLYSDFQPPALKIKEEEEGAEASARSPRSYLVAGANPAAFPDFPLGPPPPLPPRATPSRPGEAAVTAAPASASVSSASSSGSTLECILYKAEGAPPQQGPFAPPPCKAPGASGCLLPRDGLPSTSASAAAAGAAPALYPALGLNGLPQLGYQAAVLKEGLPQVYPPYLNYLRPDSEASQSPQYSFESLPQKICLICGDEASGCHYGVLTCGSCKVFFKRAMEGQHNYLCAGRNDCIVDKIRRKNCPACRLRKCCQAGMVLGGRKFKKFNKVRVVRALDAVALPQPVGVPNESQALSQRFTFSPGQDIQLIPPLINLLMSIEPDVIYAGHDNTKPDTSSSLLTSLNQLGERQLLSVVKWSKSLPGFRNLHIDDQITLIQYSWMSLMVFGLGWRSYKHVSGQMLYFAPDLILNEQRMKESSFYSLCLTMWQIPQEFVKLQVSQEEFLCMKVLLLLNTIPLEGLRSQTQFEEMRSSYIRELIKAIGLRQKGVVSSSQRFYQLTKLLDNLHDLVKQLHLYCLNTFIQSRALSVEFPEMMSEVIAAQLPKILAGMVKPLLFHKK", "experiment": "TAT3-luciferase reporter, U2OS cells cotransfected with hPR-B", "assay_type": "cell-based", "settings": "5 μM + 10 nM progesterone, 24 hours"}, "ERβ": {"biological_target": "T2, ERβ (Homo sapiens, UniProt Q92731)", "T2 construct": "expressed in transfected cells; host or cells: U2OS", "T2 sequence (Q92731 whole entry)": "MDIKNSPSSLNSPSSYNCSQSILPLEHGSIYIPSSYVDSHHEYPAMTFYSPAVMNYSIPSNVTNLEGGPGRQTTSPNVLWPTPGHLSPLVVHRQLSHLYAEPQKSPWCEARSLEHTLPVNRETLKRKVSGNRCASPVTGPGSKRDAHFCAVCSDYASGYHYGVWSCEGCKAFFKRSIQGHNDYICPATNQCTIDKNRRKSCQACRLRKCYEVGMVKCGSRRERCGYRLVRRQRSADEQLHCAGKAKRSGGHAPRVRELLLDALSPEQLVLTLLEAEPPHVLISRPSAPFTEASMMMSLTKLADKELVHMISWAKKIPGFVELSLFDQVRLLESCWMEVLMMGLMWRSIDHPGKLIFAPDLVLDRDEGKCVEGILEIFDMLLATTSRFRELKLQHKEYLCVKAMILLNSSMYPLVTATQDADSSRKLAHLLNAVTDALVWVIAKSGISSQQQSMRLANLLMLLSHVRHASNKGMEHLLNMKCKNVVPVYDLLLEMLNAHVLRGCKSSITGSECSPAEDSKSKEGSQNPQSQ", "experiment": "ERE-tk luciferase transfection assay, U2OS cells cotransfected with ERβ", "assay_type": "cell-based"}, "NKG2E promoter": {"tested_on": "NKG2E promoter", "experiment": "ChIP of ERα and SRC-2 at the NKG2E promoter in U2OS-ERα cells", "assay_type": "cell-based, human", "settings": "2′,3′,4′-THC/E2 combination, 2 hr", "procedure": "Cells were fixed with 11X formaldehyde solution for 10 minutes at 37° C. and the reaction was quenched for 2 minutes with 1.25M glycine solution as previously described (Cvoro, A., et al. Distinct Roles of Unliganded and Liganded Estrogen Receptors in Transcriptional Repression. Mol Cell 21, 555-564 (2006)). Cells were washed and collected in collecting buffer (100 mM Tris-HCl pH 9.4 and 10 mM dithiothreitol (DTT)) supplemented with a protease inhibitor cocktail. Pellets were frozen overnight at −80° C. then were thawed on ice and lysed (50 mM Tris pH 7.4, 150 mM NaCl, 10 mM ethylenediaminetetraacetic acid (EDTA), 0.5 mM ethylene glycol tetraacetic acid (EGTA), 0.5% Triton™ X-100 and 1X protease inhibitor cocktail). Cell lysates were centrifuged and cell pellet was resuspended in RIPA buffer. Samples were sonicated and supernatant was collected. Approximately 5% of each sample was taken for input and stored at 4° C. Immune complexes were collected using magnetic sepharose beads (GE Healthcare, Pittsburgh, Pa.) equilibrated in radioimmunoprecipitation assay (RIPA) buffer. Complexes were collected over a period of 3 to 4 hours rotating at 4° C. […]\nFIGS. 2a-2f2′, 3′, 4′-THC behaves as a unique coagonist on gene expression in U2OS-ERα cells. […] Expression was assessed by up regulation or down regulation of 3-fold or more and a P-value≤0.05. […]"}, "mouse uterus": {"tested_on": "mouse uterus", "experiment": "Uterine weight in intact female mice", "assay_type": "in vivo", "settings": "intact C57BL/6 female mice, daily intraperitoneal injection", "procedure": "8 week old C57b1/6J female ovariectomized or intact mice were purchased from Jackson Laboratories, Sacramento, Calif. Mice were housed and maintained according to OLAC standard procedures in the NAF facility at UC Berkeley, Calif. All mice were fed a soy-free chow diet 2916.15 (Harlan Laboratories, Livermore, Calif.) starting one week before osmotic pump implantation or 2′, 3′, 4′-THC injection. Pumps Model 2006 were purchased from Alzet and filled with vehicle, 1 μg […], 2 mg of 2′, 3′, 4′-THC or the combination of 2′, 3′, 4′-THC and estradiol. All drugs were dissolved in sterile vehicle consisting of 50% dimethylsulfoxide (DMSO), 25% ETOH and 25% deionized water. Pumps were handled with sterile gloves and filled using a 27 gauge filling tube and 1 mL syringe. All pumps were placed in 1X PBS in 15 mL sterile conical tubes and incubated overnight at 37° . Pumps were surgically implanted into 8 week old C57b1/6J female ovariectomized mice (Jackson Laboratory, Sacramento, Calif.) posterior to the scapula and left for a duration of 4 weeks. Intact mice were injected intraperitoneal with 2′, 3′, 4′-THC every day for 3 weeks. Mice were weighed once a week for the duration of the experiment. The intraperitoneal gonadal fat was removed and weighed. Uterine tissue was collected, fluid drained and then weighed.\nFIGS. 5a-5h. 2′, 3′, 4′-THC acts as antagonist in the mouse uterus. […]"}, "purified ERα": {"biological_target": "purified ERα (Homo sapiens, UniProt P03372)", "sequence (P03372 whole entry)": "as the sequence (P03372 whole entry) above", "experiment": "Fluorescent polarization with purified ERα", "assay_type": "binding"}}}
{"molecule": "O=C(/C=C/c1ccccc1)c1ccc(O)c(O)c1O", "note": "[2′, 3′, 4′-THC, 2′, 3′, 4′-trihydroxychalcone]", "values": [{"measurement": "effect on E2 induced ERα binding to the c-MYC enhancer", "setting": "ERα", "result": "inhibited"}, {"measurement": "effect on recruitment of ERα to the KRT19 ERE", "setting": "ERα", "result": "did not have a significant effect"}, {"measurement": "effect on E2-stimulation of c-MYC mRNA", "setting": "c-MYC; 5 μM + 10 nM E2, 4 hours", "result": "inhibited"}, {"measurement": "effect on E2-stimulation of c-MYC protein levels", "setting": "c-MYC; increasing doses + 10 nM E2, 1 hour", "result": "inhibited"}, {"measurement": "synergy with receptor agonist", "setting": "hPR-B", "result": "no synergy"}, {"measurement": "luciferase activity with E2", "setting": "ERβ; ERβ, 5 μM + 10 nM E2, 24 hours", "result": "synergistic increase"}, {"measurement": "activity on ERE luciferase, compound alone", "setting": "ERβ; U2OS cells transfected with ERβ, 5 μM, 24 hours", "result": "inactive"}, {"measurement": "recruitment of ERα to the NKG2E promoter", "setting": "NKG2E promoter", "result": "increased recruitment"}, {"measurement": "recruitment of SRC-2 to the NKG2E promoter", "setting": "NKG2E promoter", "result": "increased recruitment"}, {"measurement": "reduction of uterine growth compared to the control mice", "setting": "mouse uterus", "result": 50, "unit": "%"}, {"measurement": "IC50 relative to E2 (higher)", "setting": "purified ERα", "result": "approximately 10,000 fold"}]}
